{"source": "patent US4127531A", "about": "“Novel hexapeptides, intermediates therefor, and compositions and methods employing said hexapeptides” (priority 1977, dated 1978)", "origin": "cited, not measured here", "key": {"rat": {"test_system": "rat", "details": "injected directly into the brain of the rat"}, "[1]": {"test_system": "partially purified brain opiate receptor sites"}}, "data": [{"substance": "H-Tyr-Gly-Gly-Phe-Met-OH [methionine enkephalin]", "values": [{"measurement": "analgesic activity", "setting": "rat", "value": "only weak analgesic agent of short duration"}, {"measurement": "binding to partially purified brain opiate receptor sites", "setting": "[1]", "value": "binds stereo-specifically"}]}]}
